Measurements from article PMC5681660, “Reduced hepatitis B and D viral entry using clinically applied drugs as novel inhibitors of the bile acid transporter NTCP” (Scientific Reports, 2017).
Where a name gives a salt, the structure may show the parent alone.

Molecular target: T1, human NTCP (Homo sapiens, UniProt Q14973)
T1 sequence (Q14973 1-349): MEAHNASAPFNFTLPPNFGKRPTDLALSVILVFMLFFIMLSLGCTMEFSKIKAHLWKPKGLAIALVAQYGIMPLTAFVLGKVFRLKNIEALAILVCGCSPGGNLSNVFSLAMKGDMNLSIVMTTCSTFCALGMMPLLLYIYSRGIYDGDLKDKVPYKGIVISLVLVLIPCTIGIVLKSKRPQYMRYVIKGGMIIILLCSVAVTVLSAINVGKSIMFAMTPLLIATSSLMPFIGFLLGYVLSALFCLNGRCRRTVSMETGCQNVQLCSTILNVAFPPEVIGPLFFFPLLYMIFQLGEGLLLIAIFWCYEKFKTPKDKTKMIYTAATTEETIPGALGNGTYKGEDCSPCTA
Experiment: Screening taurocholate uptake assay (96-well, [14C]taurocholate, 10 µM drug)
Details: for B-score functional assay: screening taurocholate uptake, 10 µM drug

[1] = combined ranking of functional and binding screening assays
[2] = ranking over the functional and the binding screening assay

Structure (SMILES)	Ranking score [1]	B-score functional assay (B-score)	B-score functional assay	Ranking score [2]
CS(=O)(=O)O.O=C(O[C@H]1C[C@H]2CC3C[C@@H](C1)N2CC3=O)c1c[nH]c2ccccc12 [Dolasetron mesilate]	1169.41	1.844		
O=c1[nH]c2ccccc2n1CCCN1CCC(n2c(=O)[nH]c3cc(Cl)ccc32)CC1 [Domperidone]	475.277		-1.309	
CCN(CC)CCOC(=O)C(c1ccccc1)C1CCCCC1 (stereo not drawn) [Drofenine hydrochloride]	532.5		-0.177	
CCCCOc1ccc(C(=O)CCN2CCCCC2)cc1 [Dyclonine hydrochloride]	591.312		-0.08	
CC(=O)[C@H]1CC[C@H]2[C@@H]3C=CC4=CC(=O)CC[C@@]4(C)[C@@H]3CC[C@]12C [Dydrogesterone]	511.223		-1.016	
O=c1c2ccccc2[se]n1-c1ccccc1 [Ebselen]			-4.734	12.2474
Clc1ccc(COC(Cn2ccnc2)c2ccc(Cl)cc2Cl)cc1 (stereo not drawn) [Econazole nitrate]			-2.794	155.949
CCOCCn1c(N2CCCN(C)CC2)nc2ccccc21 [Emedastine]	501.772		-0.5	
C=CCOC(Cn1ccnc1)c1ccc(Cl)cc1Cl (stereo not drawn) [Enilconazole]	592.625		-0.129	
COc1cc(C)nc(-n2nc(C)cc2OC)n1 [Epirizole]			0.634	209.705
C[C@]12CC[C@H]3C(=CCc4cc(O)ccc43)[C@@H]1CCC2=O [Equilin]			-2.643	264.641
C#Cc1cccc(Nc2ncnc3cc(OCCOC)c(OCCOC)cc23)c1 [Erlotinib]			-3.126	239.996
CN(C)CCC[C@@]1(c2ccc(F)cc2)OCc2cc(C#N)ccc21 [Escitalopram oxalate]	540.899		0.103	
CNC(=O)Oc1ccc2c(c1)[C@]1(C)CCN(C)[C@@H]1N2C [Eserine hemisulfate salt]			-0.074	269.255
C[C@]12CC[C@@H]3c4ccc(O)cc4CC[C@H]3[C@@H]1CC[C@@H]2O [Estradiol-17 beta]			-4.121	76.8375
C[C@]12CC[C@@H]3c4ccc(OC(=O)N(CCCl)CCCl)cc4CC[C@H]3[C@@H]1CC[C@@H]2O [Estramustine]			-1.527	134.744

Structure (SMILES)	Ranking score [1]	B-score functional assay (B-score)	B-score functional assay	Ranking score [2]
C[C@]12CC[C@@H]3c4ccc(O)cc4CC[C@H]3[C@@H]1C[C@@H](O)[C@@H]2O [Estriol]	589.644		0.325	
C[C@]12CC[C@@H]3c4ccc(OS(=O)(=O)O)cc4CC[C@H]3[C@@H]1CCC2=O [Estropipate]			-4.027	54.037
CC[C@@H](CO)NCCN[C@@H](CC)CO [Ethambutol dihydrochloride]			-3.373	218.945
CCN(CC)C(=O)c1ccc(O)c(OC)c1 [Ethamivan]	538.826		-1.181	
C#C[C@]1(O)CC[C@H]2[C@@H]3CCc4cc(O)ccc4[C@H]3CC[C@@]21C [Ethinylestradiol]			-1.799	213.127
CCc1cc(C(N)=S)ccn1 [Ethionamide]			0.084	210.286
C#C[C@]1(OC(C)=O)CC[C@H]2[C@@H]3CCC4=C[C@@H](OC(C)=O)CC[C@@H]4[C@H]3CC[C@@]21C [Ethynodiol diacetate]			-1.671	238.458
C#C[C@]1(O)CC[C@H]2[C@@H]3CCc4cc(OC)ccc4[C@H]3CC[C@@]21C [Ethynylestradiol 3-methyl ether]	552.584		-0.011	
CCc1cccc(CC)c1NC(=O)CN(CC(=O)O)CC(=O)O [Etifenin]	532.717		-0.065	
CCNCC(O)c1cccc(O)c1 (stereo not drawn) [Etilefrine hydrochloride]	503.552		-0.021	
CCc1cccc2c3c([nH]c12)C(CC)(CC(=O)O)OCC3 (stereo not drawn) [Etodolac]			-0.274	112.748
OC(Cn1cncn1)(Cn1cncn1)c1ccc(F)cc1F [Fluconazole]	553.146		1.083	
C[C@@H]1C[C@H]2[C@@H]3C[C@H](F)C4=CC(=O)C=C[C@]4(C)[C@@]3(F)[C@@H](O)C[C@]2(C)[C@@]1(O)C(=O)COC(=O)C(C)(C)C [Flumethasone pivalate]	535.546		0.019	
CNCCC(Oc1ccc(C(F)(F)F)cc1)c1ccccc1 (stereo not drawn) [Fluoxetine hydrochloride]				265.518
CCOC(=O)c1ccc(OC(=O)CCCCCN=C(N)N)cc1.CS(=O)(=O)O [Gabexate mesilate]			0.072	203.005

Other lines, results leading:

Ranking score [1]	B-score functional assay (B-score)	B-score functional assay	Ranking score [2]	Structure (SMILES)
		1.885	165.439	O=C(OCCOCCO)c1ccccc1Nc1cccc(C(F)(F)F)c1 [Etofenamate]
568.146		-0.634		C=C1C[C@@H]2[C@H](CC[C@]3(C)C(=O)CC[C@@H]23)[C@@]2(C)C=CC(=O)C=C12 [Exemestane]
539.09		0.016		CC(=O)OCC(CCn1cnc2cnc(N)nc21)COC(C)=O [Famciclovir]
558.78		0.213		NC(=O)OCC(COC(N)=O)c1ccccc1 [Felbamate]
476.874		-1.207		O=C(O)Cc1ccc(-c2ccccc2)cc1 [Felbinac]
465.188		1.073		CCOC(=O)C1=C(C)NC(C)=C(C(=O)OC)C1c1cccc(Cl)c1Cl (stereo not drawn) [Felodipine]
1220.76	1.989			COC(=O)Nc1nc2ccc(Sc3ccccc3)cc2[nH]1 [Fenbendazole]
		-0.159	212.979	CC(C)OC(=O)C(C)(C)Oc1ccc(C(=O)c2ccc(Cl)cc2)cc1 [Fenofibrate]
		0.056	222.621	Oc1ccc(C2CNCCc3c2cc(O)c(O)c3Cl)cc1 (stereo not drawn) [Fenoldopam]
		-2.318	234.288	CC(C)(C(=O)O)c1ccc(C(O)CCCN2CCC(C(O)(c3ccccc3)c3ccccc3)CC2)cc1 (stereo not drawn) [Fexofenadine HCl]
		-2.118	172.884	O=C(COc1ccc(Cl)cc1)N1CCN(Cc2ccc3c(c2)OCO3)CC1 [Fipexide hydrochloride]
1148.84	1.693			CN1CCN(c2c(F)cc3c(=O)c(C(=O)O)cn(CCF)c3c2F)CC1 [Fleroxacin]
		-0.913	235.125	CS(=O)(=O)c1ccc([C@@H](O)[C@@H](CF)NC(=O)C(Cl)Cl)cc1 [Florfenicol]
		-2.582	133.828	Cc1c(Nc2ncccc2C(=O)O)cccc1C(F)(F)F [Flunixin meglumine]
619.745		0.319		CC(=O)OCC(=O)[C@@]12OC(C)(C)O[C@@H]1C[C@H]1[C@@H]3C[C@H](F)C4=CC(=O)C=C[C@]4(C)[C@@]3(F)[C@@H](O)C[C@@]12C [Fluocinonide]
616.409		-0.26		CC(=O)[C@@]1(O)CC[C@H]2[C@@H]3C[C@H](C)C4=CC(=O)C=C[C@]4(C)[C@@]3(F)[C@@H](O)C[C@@]21C [Fluorometholone]
		-4.102	99.0152	OCCN1CCN(CCCN2c3ccccc3Sc3ccc(C(F)(F)F)cc32)CC1 [Fluphenazine dihydrochloride]
612.059		-0.613		CC(C(=O)O)c1ccc(-c2ccccc2)c(F)c1 (stereo not drawn) [Flurbiprofen]
517.364		0.19		O=C1NCN(c2ccccc2)C12CCN(CCCC(c1ccc(F)cc1)c1ccc(F)cc1)CC2 [Fluspirilen]
		-3.098	89.7998	CC(C)n1c(/C=C/C(O)CC(O)CC(=O)O)c(-c2ccc(F)cc2)c2ccccc21 (stereo not drawn) [Fluvastatin sodium salt]
486.369		0.566		COCCCC/C(=N\OCCN)c1ccc(C(F)(F)F)cc1 [Fluvoxamine maleate]
592.766		0.718		Cl.O=C1OC(CN2CCOCC2)CN1/N=C/c1ccc([N+](=O)[O-])o1 (stereo not drawn) [Furaltadone hydrochloride]
1165.28	1.457			NS(=O)(=O)c1cc(C(=O)O)c(NCc2ccco2)cc1Cl [Furosemide]
523.068		-0.548		CC(=O)O[C@H]1C[C@@]2(C)[C@@H](C[C@@H](O)[C@H]3[C@@]4(C)CC[C@@H](O)[C@@H](C)[C@@H]4CC[C@@]32C)/C1=C(\CCC=C(C)C)C(=O)O [Fusidic acid sodium salt]
		-0.231	269.035	COc1ccc(-c2ccc(=N)n(CCCC(=O)O)n2)cc1 [Gabazine bromide]
